The EC50 is the midpoint of the concentration-response curve.

Bridge positions count the residues as written; N and C are the ends. Square brackets hold non-standard residues; d marks the D form. Peptide text beside a SMILES is read from it. Hyp = O=C(O)[C@@H]1C[C@@H](O)CN1

The nature of series [1]: Physical stability of peptide analogues (Thioflavin T fibrillation). In kind it is physicochemical. To be noted: maximum ThT signal normalized between hAMY maximum and buffer background; 40° C., shaking, four days; pH 7 per table title. Put shortly: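 Peptides in 50 mM sodium acetate pH 4 or 50 mM sodium phosphate pH 7 were preincubated 1 h, mixed with 4 μM ThT, held at 40° C with 700 rpm shaking before each read. Fluorescence (ex 450/em 480 nm) every 10 min for four days; LOESS-smoothed maximum signal normalized in percent between hAMY and buffer.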

The target in another series is T1, hAMY3 receptor (Homo sapiens, UniProt O60896+P30988).
T1 sequence (P30988 25-474): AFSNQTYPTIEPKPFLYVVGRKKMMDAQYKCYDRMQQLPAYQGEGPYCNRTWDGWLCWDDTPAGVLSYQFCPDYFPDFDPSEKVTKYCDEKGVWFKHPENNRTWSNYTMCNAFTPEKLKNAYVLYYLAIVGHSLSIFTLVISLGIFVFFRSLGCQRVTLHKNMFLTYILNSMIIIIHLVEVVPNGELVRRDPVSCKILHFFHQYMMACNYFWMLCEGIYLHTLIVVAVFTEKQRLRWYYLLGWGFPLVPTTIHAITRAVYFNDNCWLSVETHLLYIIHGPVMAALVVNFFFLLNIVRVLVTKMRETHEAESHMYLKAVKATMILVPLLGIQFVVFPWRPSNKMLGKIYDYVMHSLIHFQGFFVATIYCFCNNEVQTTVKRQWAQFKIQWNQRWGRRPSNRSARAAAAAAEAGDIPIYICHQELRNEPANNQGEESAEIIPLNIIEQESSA
T1 sequence (O60896 24-148 partner): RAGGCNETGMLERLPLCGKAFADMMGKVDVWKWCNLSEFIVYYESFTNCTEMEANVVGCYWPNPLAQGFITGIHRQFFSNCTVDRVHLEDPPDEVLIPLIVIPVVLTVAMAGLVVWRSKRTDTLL
The series is described as follows: cAMP assay for in vitro receptor activation, hAMY3-R. The format is cell-based. Conditions: cAMP assay, hAMY3 receptor; read-out: hAMY3R EC50. Put shortly:
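Monoclonal cell line stably overexpressing human AMY3 receptor, 2000 cells/well in DPBS with 0.05% casein and 0.5 mM IBMX. Stimulated 30 min at room temperature with graded compound doses, human amylin as positive control. cAMP accumulation read by TR-FRET after one hour.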

`CC[C@H](C)[C@H](NC(=O)[C@H](CCC(N)=O)NC(=O)[C@H](Cc1c[nH]cn1)NC(=O)[C@H](C)NC(=O)[C@H](CC(C)C)NC(=O)[C@H](CCCNC(=N)N)NC(=O)[C@H](CCC(N)=O)NC(=O)[C@@H](NC(=O)[C@@H](NC(=O)[C@@H]1CSSC[C@H](NC(=O)CN)C(=O)N[C@@H](CCCNC(=N)N)C(=O)N[C@@H](Cc2ccccc2)C(=O)NCC(=O)N[C@@H]([C@@H](C)O)C(=O)N1)[C@@H](C)O)C(C)C)C(=O)N[C@@H](Cc1ccc(O)cc1)C(=O)N[C@@H](CCC(N)=O)C(=O)N[C@@H](Cc1ccccc1)C(=O)N[C@H](C(=O)N[C@@H](CC(=O)O)C(=O)N[C@@H](CCCCN)C(=O)N[C@@H](CC(=O)O)C(=O)N[C@@H](CCCCN)C(=O)N[C@@H](CC(=O)O)C(=O)N[C@@H](CC(N)=O)C(=O)N[C@H](C(=O)N[C@@H](C)C(=O)N1CCC[C@H]1C(=O)N[C@@H](CCCNC(=N)N)C(=O)N[C@H](C(=O)N[C@@H](CC(N)=O)C(=O)N[C@H](C(=O)N[C@@H](CO)C(=O)N1CCC[C@H]1C(=O)N[C@@H](CCC(N)=O)C(=O)NCC(=O)N[C@@H](Cc1ccc(O)cc1)C(N)=O)[C@@H](C)CC)[C@@H](C)O)C(C)C)[C@@H](C)O` [compound 140] (H-GCRFGTCTVQRLAHQIYQFTDKDKDNVAPRTNISPQGY-NH2; disulfide 2-7; N-terminus assumed): the “Max ThT signal (%)” value in series [1] was 3.100%. Further, the EC50 on hAMY3 receptor stood at 0.036 nM.

Turning to `CC[C@H](C)[C@H](NC(=O)[C@H](CCC(N)=O)NC(=O)[C@H](Cc1c[nH]cn1)NC(=O)[C@H](C)NC(=O)[C@H](CC(C)C)NC(=O)[C@H](CCCNC(=N)N)NC(=O)[C@H](CCC(N)=O)NC(=O)[C@@H](NC(=O)[C@@H](NC(=O)[C@@H]1CSSC[C@H](NC(=O)CN)C(=O)N[C@@H](CCCNC(=N)N)C(=O)N[C@@H](Cc2ccccc2)C(=O)NCC(=O)N[C@@H]([C@@H](C)O)C(=O)N1)[C@@H](C)O)C(C)C)C(=O)N[C@@H](Cc1ccc(O)cc1)C(=O)N[C@@H](CCC(N)=O)C(=O)N[C@@H](Cc1ccccc1)C(=O)N[C@H](C(=O)N[C@@H](CC(=O)O)C(=O)N[C@@H](CCCCN)C(=O)N[C@@H](CC(=O)O)C(=O)N[C@@H](CCCCN)C(=O)N[C@@H](CC(=O)O)C(=O)N[C@@H](CC(N)=O)C(=O)N[C@H](C(=O)N[C@@H](C)C(=O)N1CCC[C@H]1C(=O)N[C@@H](CCCNC(=N)N)C(=O)N[C@H](C(=O)N[C@@H](CC(N)=O)C(=O)N[C@H](C(=O)N[C@@H](CO)C(=O)N1CCC[C@H]1C(=O)N[C@@H](CCC(N)=O)C(=O)NCC(=O)N1C[C@H](O)C[C@H]1C(N)=O)[C@@H](C)CC)[C@@H](C)O)C(C)C)[C@@H](C)O` [compound 141] (H-GCRFGTCTVQRLAHQIYQFTDKDKDNVAPRTNISPQG[Hyp]-NH2; disulfide 2-7; N-terminus assumed), in series [1], the “Max ThT signal (%)” value was 3.200%. Besides, the EC50 on hAMY3 receptor is 0.036 nM.

In the case of `CC[C@H](C)[C@H](NC(=O)[C@H](CCC(N)=O)NC(=O)[C@H](Cc1c[nH]cn1)NC(=O)[C@H](C)NC(=O)[C@H](CC(C)C)NC(=O)[C@H](CCCNC(=N)N)NC(=O)[C@H](CCC(N)=O)NC(=O)[C@@H](NC(=O)[C@@H](NC(=O)[C@@H]1CSSC[C@H](NC(=O)CN)C(=O)N[C@@H](CCCNC(=N)N)C(=O)N[C@@H]([C@@H](C)O)C(=O)NCC(=O)N[C@@H]([C@@H](C)O)C(=O)N1)[C@@H](C)O)C(C)C)C(=O)N[C@@H](Cc1ccc(O)cc1)C(=O)N[C@@H](CCC(N)=O)C(=O)N[C@@H](Cc1ccccc1)C(=O)N[C@H](C(=O)N[C@@H](CC(=O)O)C(=O)N[C@@H](CCCCN)C(=O)N[C@@H](CC(=O)O)C(=O)N[C@@H](CCCCN)C(=O)N[C@@H](CC(=O)O)C(=O)N[C@@H](CC(N)=O)C(=O)N[C@H](C(=O)N[C@@H](C)C(=O)N1CCC[C@H]1C(=O)N[C@@H](CCCNC(=N)N)C(=O)N[C@H](C(=O)N[C@@H](CCCCN)C(=O)N[C@H](C(=O)NCC(=O)N1CCC[C@H]1C(=O)N[C@@H](CCC(N)=O)C(=O)NCC(=O)N1C[C@H](O)C[C@H]1C(N)=O)C(C)C)[C@@H](C)O)C(C)C)[C@@H](C)O` [compound 143] (H-GCRTGTCTVQRLAHQIYQFTDKDKDNVAPRTKVGPQG[Hyp]-NH2; disulfide 2-7; N-terminus assumed), in series [1], the “Max ThT signal (%)” value worked out at 2.200%. Further, the EC50 at hAMY3 receptor came to 0.038 nM.

As for `CC[C@H](C)[C@H](NC(=O)[C@H](CCC(N)=O)NC(=O)[C@H](Cc1c[nH]cn1)NC(=O)[C@H](C)NC(=O)[C@H](CC(C)C)NC(=O)[C@H](CCCNC(=N)N)NC(=O)[C@H](CCC(N)=O)NC(=O)[C@@H](NC(=O)[C@@H](NC(=O)[C@@H]1CSSC[C@H](NC(=O)CN)C(=O)N[C@@H](CCCNC(=N)N)C(=O)N[C@@H](Cc2ccccc2)C(=O)NCC(=O)N[C@@H]([C@@H](C)O)C(=O)N1)[C@@H](C)O)C(C)C)C(=O)N[C@@H](Cc1ccc(O)cc1)C(=O)N[C@@H](CCC(N)=O)C(=O)N[C@@H](Cc1ccccc1)C(=O)N[C@H](C(=O)N[C@@H](CC(=O)O)C(=O)N[C@@H](CCCCN)C(=O)N[C@@H](CC(=O)O)C(=O)N[C@@H](CCCCN)C(=O)N[C@@H](CC(=O)O)C(=O)N[C@@H](CC(N)=O)C(=O)N[C@H](C(=O)N[C@@H](C)C(=O)N1CCC[C@H]1C(=O)N[C@@H](CCCNC(=N)N)C(=O)N[C@@H](CO)C(=O)N[C@@H](CC(N)=O)C(=O)N[C@H](C(=O)N[C@@H](CO)C(=O)N1CCC[C@H]1C(=O)N[C@@H](CCC(N)=O)C(=O)NCC(=O)N1C[C@H](O)C[C@H]1C(N)=O)C(C)C)C(C)C)[C@@H](C)O` [compound 145] (H-GCRFGTCTVQRLAHQIYQFTDKDKDNVAPRSNVSPQG[Hyp]-NH2; disulfide 2-7; N-terminus assumed), in series [1], the “Max ThT signal (%)” value was 2.000%. Besides, at hAMY3 receptor, the EC50 turned out to be 0.039 nM.

For the molecule `CC[C@H](C)[C@H](NC(=O)[C@H](CCC(N)=O)NC(=O)[C@H](Cc1c[nH]cn1)NC(=O)[C@H](C)NC(=O)[C@H](CC(C)C)NC(=O)[C@H](CCCNC(=N)N)NC(=O)[C@H](CCC(N)=O)NC(=O)[C@@H](NC(=O)[C@@H](NC(=O)[C@@H]1CSSC[C@H](NC(=O)CN)C(=O)N[C@@H](CCCNC(=N)N)C(=O)N[C@@H](Cc2ccccc2)C(=O)NCC(=O)N[C@@H]([C@@H](C)O)C(=O)N1)[C@@H](C)O)C(C)C)C(=O)N[C@@H](Cc1ccc(O)cc1)C(=O)N[C@@H](CCC(N)=O)C(=O)N[C@@H](Cc1ccccc1)C(=O)N[C@H](C(=O)N[C@@H](CC(=O)O)C(=O)N[C@@H](CCCCN)C(=O)N[C@@H](CC(=O)O)C(=O)N[C@@H](CCCCN)C(=O)N[C@@H](CC(=O)O)C(=O)N[C@@H](CC(N)=O)C(=O)N[C@H](C(=O)N[C@@H](C)C(=O)N1CCC[C@H]1C(=O)N[C@@H](CCCNC(=N)N)C(=O)N[C@H](C(=O)N[C@@H](CCCCN)C(=O)N[C@H](C(=O)N[C@@H](CO)C(=O)N1CCC[C@H]1C(=O)N[C@@H](CCC(N)=O)C(=O)NCC(=O)N1C[C@H](O)C[C@H]1C(N)=O)[C@@H](C)CC)[C@@H](C)O)C(C)C)[C@@H](C)O` [compound 146] (H-GCRFGTCTVQRLAHQIYQFTDKDKDNVAPRTKISPQG[Hyp]-NH2; disulfide 2-7; N-terminus assumed), the “Max ThT signal (%)” value in series [1] turned out to be 3.600%. Also, on hAMY3 receptor, the EC50 was 0.04 nM.

As to `CC[C@H](C)[C@@H]1NC(=O)[C@H](CCCNC(=N)N)NC(=O)[C@@H](NC(=O)CN)CSSC[C@@H](C(=O)N[C@H](C(=O)N[C@H](C(=O)N[C@@H](CCC(N)=O)C(=O)N[C@@H](CCCNC(=N)N)C(=O)N[C@@H](CC(C)C)C(=O)N[C@@H](C)C(=O)N[C@@H](Cc2c[nH]cn2)C(=O)N[C@@H](CCC(N)=O)C(=O)N[C@H](C(=O)N[C@@H](Cc2ccc(O)cc2)C(=O)N[C@@H](CCC(N)=O)C(=O)N[C@@H](Cc2ccccc2)C(=O)N[C@H](C(=O)N[C@@H](CC(=O)O)C(=O)N[C@@H](CCCCN)C(=O)N[C@@H](Cc2ccccc2)C(=O)N[C@@H](CCCCN)C(=O)N[C@@H](CC(=O)O)C(=O)N[C@@H](CC(N)=O)C(=O)N[C@H](C(=O)N[C@@H](C)C(=O)N2CCC[C@H]2C(=O)N[C@@H](CCCNC(=N)N)C(=O)N[C@@H](CO)C(=O)N[C@@H](CCCCN)C(=O)N[C@H](C(=O)N[C@@H](CO)C(=O)N2CCC[C@H]2C(=O)N[C@@H](CCC(N)=O)C(=O)N[C@H](C(=O)N2C[C@H](O)C[C@H]2C(N)=O)[C@@H](C)O)[C@@H](C)CC)C(C)C)[C@@H](C)O)[C@@H](C)CC)C(C)C)[C@@H](C)O)NC(=O)[C@H]([C@@H](C)O)NC(=O)CNC1=O` [compound 147] (H-GCRIGTCTVQRLAHQIYQFTDKFKDNVAPRSKISPQT[Hyp]-NH2; disulfide 2-7; N-terminus assumed), in series [1], the “Max ThT signal (%)” value was found to be 5.100%. Also, the EC50 on hAMY3 receptor was 0.04 nM.

These data come from patent US12139520B2 (priority 2020, dated 2024).
